Read-outs that look alike come from different tables or passages of the source.
Tests used:
BRD4 = BRD4 (Homo sapiens, UniProt O60885); assay: Fluorescence anisotropy (FA) binding assay, BRD4
Procedure: (§1) Fluorescence Anisotropy (FA) Binding Assays.
(§2) FA assays were performed as described in Chung et al., J. Med Chem., 2011 54(11): 3827-38 except that protein concentrations were 125 nM and plates were read on a Spectramax M5 plate reader.

BRD2 = BRD2 (Homo sapiens, UniProt P25440); assay: Fluorescence anisotropy (FA) binding assay, BRD2
Procedure: as §1, §2

BRD3 = BRD3 (Homo sapiens, UniProt Q15059); assay: Fluorescence anisotropy (FA) binding assay, BRD3
Procedure: as §1, §2

[1] = BRD4, protein 125 nM, read-out: IC50 range (FA assay) BRD4, BRD-E monomers
[2] = BRD2, protein 125 nM, read-out: IC50 range (FA assay) BRD2, BRD-E monomers
[3] = BRD3, protein 125 nM, read-out: IC50 range (FA assay) BRD3, BRD-E monomers

BRD2, sequence (P25440 whole entry): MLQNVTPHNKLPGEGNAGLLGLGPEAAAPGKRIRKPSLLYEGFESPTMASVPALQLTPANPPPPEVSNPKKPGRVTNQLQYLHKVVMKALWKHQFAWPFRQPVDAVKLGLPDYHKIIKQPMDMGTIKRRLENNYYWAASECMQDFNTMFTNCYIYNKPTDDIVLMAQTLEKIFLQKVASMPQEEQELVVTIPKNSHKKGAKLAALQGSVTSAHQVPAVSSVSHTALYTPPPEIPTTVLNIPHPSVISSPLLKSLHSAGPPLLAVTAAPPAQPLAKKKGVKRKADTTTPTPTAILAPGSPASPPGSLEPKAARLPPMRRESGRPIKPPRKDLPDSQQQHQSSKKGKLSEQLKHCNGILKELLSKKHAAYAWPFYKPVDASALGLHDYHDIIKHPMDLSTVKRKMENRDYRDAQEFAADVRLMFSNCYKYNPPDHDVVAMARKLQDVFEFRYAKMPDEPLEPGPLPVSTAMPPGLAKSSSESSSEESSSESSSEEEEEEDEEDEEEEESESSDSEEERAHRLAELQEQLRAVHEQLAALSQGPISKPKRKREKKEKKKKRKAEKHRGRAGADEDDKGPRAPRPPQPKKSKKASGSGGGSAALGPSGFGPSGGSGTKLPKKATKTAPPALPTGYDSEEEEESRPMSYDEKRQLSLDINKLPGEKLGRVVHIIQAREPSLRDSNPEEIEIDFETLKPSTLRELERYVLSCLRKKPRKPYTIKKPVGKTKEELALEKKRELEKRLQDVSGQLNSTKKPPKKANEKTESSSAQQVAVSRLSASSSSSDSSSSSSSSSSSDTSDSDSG
BRD3, sequence (Q15059 whole entry): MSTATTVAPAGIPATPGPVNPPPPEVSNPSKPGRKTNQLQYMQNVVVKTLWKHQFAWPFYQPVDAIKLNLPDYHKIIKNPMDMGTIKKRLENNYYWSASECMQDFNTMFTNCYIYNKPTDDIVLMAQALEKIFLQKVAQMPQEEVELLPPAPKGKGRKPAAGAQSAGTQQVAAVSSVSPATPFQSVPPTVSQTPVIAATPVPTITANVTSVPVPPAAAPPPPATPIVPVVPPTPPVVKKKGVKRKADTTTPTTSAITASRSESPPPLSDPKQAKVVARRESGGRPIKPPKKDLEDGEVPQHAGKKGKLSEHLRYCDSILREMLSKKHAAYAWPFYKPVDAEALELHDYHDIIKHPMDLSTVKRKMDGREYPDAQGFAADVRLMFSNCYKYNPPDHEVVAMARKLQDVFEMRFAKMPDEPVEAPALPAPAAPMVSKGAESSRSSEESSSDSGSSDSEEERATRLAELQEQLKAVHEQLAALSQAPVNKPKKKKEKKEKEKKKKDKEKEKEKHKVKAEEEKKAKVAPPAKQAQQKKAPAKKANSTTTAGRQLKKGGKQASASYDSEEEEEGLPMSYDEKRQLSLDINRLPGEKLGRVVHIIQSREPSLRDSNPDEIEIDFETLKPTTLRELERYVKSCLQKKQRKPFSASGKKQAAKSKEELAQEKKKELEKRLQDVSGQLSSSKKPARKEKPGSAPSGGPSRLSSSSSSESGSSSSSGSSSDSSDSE

Row | Structure (SMILES) | IC50 (BRD4) | IC50 (BRD2) | IC50 (BRD3) | IC50 (BRD4; [1]) | IC50 (BRD2; [2]) | IC50 (BRD3; [3])
1 | COc1ccc2c(c1)C(c1ccc(Cl)cc1)=N[C@@H](CC(=O)NCCNC(=O)c1ccc(B(O)O)cc1)c1nnc(C)n1-2 [BRD-E-01, (4-((2-(2-((4S)-6-(4-chlorophenyl)-8-methoxy-1-methyl-4H-benzo[f][1,2,4]triazolo[4,3-a][1,4]diazepin-4-yl)acetamido)ethyl)carbamoyl)phenyl)boronic acid] | 50 to 1000 nM | 50 to 1000 nM | 50 to 1000 nM | – | – | –
2 | COc1ccc2c(c1)C(c1ccc(Cl)cc1)=N[C@@H](CC(=O)NCCNC(=O)c1cccc(B(O)O)c1)c1nnc(C)n1-2 [BRD-E-02, (3-((2-(2-((4S)-6-(4-chlorophenyl)-8-methoxy-1-methyl-4H-benzo[f][1,2,4]triazolo[4,3-a][1,4]diazepin-4-yl)acetamido)ethyl)carbamoyl)phenyl)boronic acid] | 50 to 1000 nM | 50 to 1000 nM | 50 to 1000 nM | – | – | –
3 | COc1ccc2c(c1)C(c1ccc(Cl)cc1)=N[C@@H](CC(=O)NCCCNC(=O)c1ccc(B(O)O)cc1)c1nnc(C)n1-2 [BRD-E-03, (4-((3-(2-((4S)-6-(4-chlorophenyl)-8-methoxy-1-methyl-4H-benzo[f][1,2,4]triazolo[4,3-a][1,4]diazepin-4-yl)acetamido)propyl)carbamoyl)phenyl)-boronic acid] | – | – | – | 50 to 1000 nM | 50 to 1000 nM | 50 to 1000 nM
4 | COc1ccc2c(c1)C(c1ccc(Cl)cc1)=N[C@@H](CC(=O)NCCCNC(=O)c1cccc(B(O)O)c1)c1nnc(C)n1-2 [BRD-E-04, (3-((3-(2-((4S)-6-(4-chlorophenyl)-8-methoxy-1-methyl-4H-benzo[f][1,2,4]triazolo[4,3-a][1,4]diazepin-4-yl)acetamido)propyl)carbamoyl)phenyl)-boronic acid] | – | – | – | 50 to 1000 nM | 50 to 1000 nM | 50 to 1000 nM
5 | COc1ccc2c(c1)C(c1ccc(Cl)cc1)=N[C@@H](CC(=O)NCCCCNC(=O)c1ccc(B(O)O)cc1)c1nnc(C)n1-2 [BRD-E-05, (4-((4-(2-((4S)-6-(4-chlorophenyl)-8-methoxy-1-methyl-4H-benzo[f][1,2,4]triazolo[4,3-a][1,4]diazepin-4-yl)acetamido)butyl)carbamoyl)phenyl)boronic acid] | – | – | – | 50 to 1000 nM | 50 to 1000 nM | 50 to 1000 nM
6 | COc1ccc2c(c1)C(c1ccc(Cl)cc1)=N[C@@H](CC(=O)NCCCCNC(=O)c1cccc(B(O)O)c1)c1nnc(C)n1-2 [BRD-E-06, (3-((4-(2-((4S)-6-(4-chlorophenyl)-8-methoxy-1-methyl-4H-benzo[f][1,2,4]triazolo[4,3-a][1,4]diazepin-4-yl)acetamido)butyl)carbamoyl)phenyl)boronic acid] | – | – | – | 50 to 1000 nM | 50 to 1000 nM | 50 to 1000 nM
7 | COc1ccc2c(c1)C(c1ccc(Cl)cc1)=N[C@@H](CC(=O)NCCCCCNC(=O)c1ccc(B(O)O)cc1)c1nnc(C)n1-2 [BRD-E-07, (4-((5-(2-((4S)-6-(4-chlorophenyl)-8-methoxy-1-methyl-4H-benzo[f][1,2,4]triazolo[4,3-a][1,4]diazepin-4-yl)acetamido)pentyl)carbamoyl)phenyl)-boronic acid] | 50 to 1000 nM | 50 to 1000 nM | 50 to 1000 nM | – | – | –
8 | COc1ccc2c(c1)C(c1ccc(Cl)cc1)=N[C@@H](CC(=O)NCCCCCNC(=O)c1cccc(B(O)O)c1)c1nnc(C)n1-2 [BRD-E-08, (3-((5-(2-((4S)-6-(4-chlorophenyl)-8-methoxy-1-methyl-4H-benzo[f][1,2,4]triazolo[4,3-a][1,4]diazepin-4-yl)acetamido)pentyl)carbamoyl)phenyl)-boronic acid] | – | – | – | 50 to 1000 nM | 50 to 1000 nM | 50 to 1000 nM
9 | COc1ccc2c(c1)C(c1ccc(Cl)cc1)=N[C@@H](CC(=O)NCc1ccc(B(O)O)cc1)c1nnc(C)n1-2 [BRD-E-09, (S)-(4-((2-(6-(4-chlorophenyl)-8-methoxy-1-methyl-4H-benzo[f][1,2,4]triazolo[4,3-a][1,4]diazepin-4-yl)acetamido)methyl)phenyl)boronic acid] | – | – | – | 50 to 1000 nM | 50 to 1000 nM | 50 to 1000 nM
10 | COc1ccc2c(c1)C(c1ccc(Cl)cc1)=N[C@@H](CC(=O)NCc1cccc(B(O)O)c1)c1nnc(C)n1-2 [BRD-E-10, (S)-(3-((2-(6-(4-chlorophenyl)-8-methoxy-1-methyl-4H-benzo[f][1,2,4]triazolo[4,3-a][1,4]diazepin-4-yl)acetamido)methyl)phenyl)boronic acid] | 50 to 1000 nM | 50 to 1000 nM | 50 to 1000 nM | – | – | –
11 | COc1ccc2c(c1)C(c1ccc(Cl)cc1)=N[C@@H](CC(=O)NCCc1ccc(B(O)O)cc1)c1nnc(C)n1-2 [BRD-E-13, (S)-(4-(2-(2-(6-(4-chlorophenyl)-8-methoxy-1-methyl-4H-benzo[f][1,2,4]triazolo[4,3-a][1,4]diazepin-4-yl)acetamido)ethyl)phenyl)boronic acid] | – | – | – | 50 to 1000 nM | 1000 to 30000 nM | 50 to 1000 nM
12 | COc1ccc2c(c1)C(c1ccc(Cl)cc1)=N[C@@H](CC(=O)NCCc1cccc(B(O)O)c1)c1nnc(C)n1-2 [BRD-E-14, (S)-(3-(2-(2-(6-(4-chlorophenyl)-8-methoxy-1-methyl-4H-benzo[f][1,2,4]triazolo[4,3-a][1,4]diazepin-4-yl)acetamido)ethyl)phenyl)boronic acid] | – | – | – | 50 to 1000 nM | 50 to 1000 nM | 50 to 1000 nM
13 | CCNC(=O)C[C@@H]1N=C(c2ccc(Cl)cc2)c2cc(OCC(=O)Nc3cccc(B(O)O)c3)ccc2-n2c(C)nnc21 [BRD-E-15, (S)-(3-(2-((6-(4-chlorophenyl)-4-(2-(ethylamino)-2-oxoethyl)-1-methyl-4H-benzo[f][1,2,4]triazolo[4,3-a][1,4]diazepin-8-yl)oxy)acetamido)phenyl)boronic acid] | – | – | – | 50 to 1000 nM | 1000 to 30000 nM | 50 to 1000 nM
14 | CCNC(=O)C[C@@H]1N=C(c2ccc(Cl)cc2)c2cc(OCC(=O)Nc3ccc(B(O)O)cc3)ccc2-n2c(C)nnc21 [BRD-E-16, (S)-(4-(2-((6-(4-chlorophenyl)-4-(2-(ethylamino)-2-oxoethyl)-1-methyl-4H-benzo[f][1,2,4]triazolo[4,3-a][1,4]diazepin-8-yl)oxy)acetamido)phenyl)boronic acid] | – | – | – | 50 to 1000 nM | 1000 to 30000 nM | 50 to 1000 nM
15 | CCNC(=O)C[C@@H]1N=C(c2ccc(Cl)cc2)c2cc(OCCCC(=O)Nc3cccc(B(O)O)c3)ccc2-n2c(C)nnc21 [BRD-E-19] | – | – | – | 50 to 1000 nM | 50 to 1000 nM | 50 to 1000 nM
16 | CCNC(=O)C[C@@H]1N=C(c2ccc(Cl)cc2)c2cc(OCCCCC(=O)Nc3cccc(B(O)O)c3)ccc2-n2c(C)nnc21 [BRD-E-20, (S)-(3-(5-((6-(4-chlorophenyl)-4-(2-(ethylamino)-2-oxoethyl)-1-methyl-4H-benzo[f][1,2,4]triazolo[4,3-a][1,4]diazepin-8-yl)oxy)pentanamido)phenyl)boronic acid] | – | – | – | 50 to 1000 nM | 50 to 1000 nM | 50 to 1000 nM
17 | COc1ccc2c(c1)C(c1ccc(Cl)cc1)=N[C@@H](CC(=O)NCCNC(=O)Cc1ccc(B(O)O)cc1)c1nnc(C)n1-2 [BRD-E-27, (4-(2-((2-(2-((4S)-6-(4-chlorophenyl)-8-methoxy-1-methyl-4H-benzo[f][1,2,4]triazolo[4,3-a][1,4]diazepin-4-yl)acetamido)ethyl)amino)-2-oxoethyl)phenyl)boronic acid] | – | – | – | 1000 to 30000 nM | 1000 to 30000 nM | –

Reference: patent US20140243286A1, “BROMODOMAIN LIGANDS CAPABLE OF DIMERIZING IN AN AQUEOUS SOLUTION, AND METHODS OF USING SAME” (Coferon, Inc., priority 2011, published 2014)
